These results are taken from patent publication EP4755886A1 (Chengdu Chipscreen Pharmaceutical Ltd., priority 2023, dated 2025).

In the assay the test system is gene-editing MTAP-/- human colon cancer cell strain HCT116. Kind of assay: Efficacy in MTAP-/- HCT116 subcutaneous xenograft mouse model. The following applies: 10 mg/kg, PO, qd, 28 days. The class given is in vivo, Balb/c nude mice. Here is the method: The blank group contained 40% PEG400 normal saline with 2% DMSO. […] The test substance was intragastrically administered at 10 mg/kg once daily, and MRTX1719 was intragastrically administered at 50 mg/kg once daily. Model control: The vehicle (2% DMSO + 40% PEG400 + 58% normal saline) was intragastrically administered at a dose of 10 mL/kg once daily. Administration was performed for 28 days in total. […] The mice were euthanized on the day when the last administration was completed. […] In the formula, VTt represents the tumor volume of the treatment group at each measurement, and VT0 represents the tumor volume measured when the treatment group is grouped; VCt represents the tumor volume of the vehicle group at each measurement (same as VTt), and VC0 represents the tumor volume measured when the vehicle group is grouped. Data were analyzed using GraphPad Prism 9.0 software and expressed as Mean ± SEM (standard error). Pairwise comparisons between each administration group and the control group were performed using one-way analysis of variance (ANOVA). Variance homogeneity was determined using the Brown-Forsythe method, and variance heterogeneity was determined using the Dunnett's T3 method. Table 7. Efficacy evaluation in HCT116 subcutaneous xenograft mouse model

The structures appear in SMILES notation.

As for `CN(C(=O)c1cc2c(cc1F)nc(N)c1cnn(C)c12)[C@@H]1COc2cc(C#Cc3cnn(C)c3)ccc21` [Compound 5A, (S)-4-amino-7-fluoro-N,1-dimethyl-N-(6-((1-methyl-1H-pyrazol-4-yl)ethynyl)-2,3-dihydrobenzofuran-3-yl)-1H-pyrazolo[4,3-c]quinoline-8-carboxamide], the TGI (in general, how far tumour growth fell short of that in controls) amounted to 82.25% and the Tumor volume turned out to be 378.72 mm^3.
